Reference: patent publication US20130142831A1, “COMPOUNDS FOR INFLAMMATION AND IMMUNE-RELATED USES” (Synta Pharmaceuticals Corp., priority 2004, published 2013)

Tested on: IL-2 production
Experiment: Inhibition of IL-2 production in PHA-activated Jurkat cells
Format: cell-based
Conditions: Homo sapiens, PHA 2.5 μg/mL, 20 hours
Procedure: Jurkat cells were placed in a 96 well plate (0.5 million cells per well in 1% FBS medium) then test compounds of this invention were added at different concentrations. After 10 minutes, the cells were activated with PHA (final concentration 2.5 μg/mL) and incubated for 20 hours at 37° C. under CO2. The final volume was 200 μL. Following incubation, the cells were centrifuged and the supernatants collected and stored at −70° C. prior to assaying for IL-2 production. A commercial kit (IL-2 Eli-pair, Diaclone Research, Besancon, France) was used to detect production of IL-2, from which dose response curves were obtained. The IC50 value was calculated as the concentration at which. 50% of maximum IL-2 production after stimulation was inhibited versus a non-stimulation control.

Question: `NC(=O)c1ccc2c(c1)nc(C(F)(F)F)n2-c1ccc(NC(=O)c2cccc(F)c2F)cc1` [Compound 113, 2,3-Difluoro-N-[4-(2-trifluoromethyl-5-carbamoyl-benzoimidazol-1-yl)-phenyl]-benzamide] was tested. Which IC50 (bins given in nM) did it give?
Answer: Its IC50 is < 100 nM.

Question: `CCCC(=O)Nc1ccc(-n2c(C(F)(F)F)nc3cc(OC)ccc32)cc1` [Compound 82, N-[4-(2-trifluoromethyl-5-methoxy-benzoimidazol-1-yl)-phenyl]-butyramide] was tested. Which IC50 (bins given in nM) did it give?
Answer: The IC50 was 100 to 500 nM.

Question: How did the IC50 (bins given with μM limit) turn out when `Cc1cc(-n2c(C(F)(F)F)nc3ccccc32)ccc1NC(=O)c1cccc(F)c1F` [Compound 55, 2,3-Difluoro-N-[2-methyl-4-(2-trifluoromethyl-benzoimidazol-1-yl)-phenyl]-benzamide] was run?
Answer: Its IC50 is > 1000 nM.

Question: With `O=C(Nc1ccc(-n2c(C(F)(F)F)nc3ccccc32)cc1)c1cc(F)ccc1F` [Compound 26, 2,5-Difluoro-N-[4-(2-trifluoromethyl-benzoimidazol-1-yl)-phenyl]-benzamide] as the compound, how does the IC50 (bins given in nM) read?
Answer: The IC50 was 100 to 500 nM.

Question: Which IC50 (bins given with μM limit) does the source give for `CC(C)(C)c1cnc(-c2ccc3c(c2)nc(C(F)(F)F)n3-c2ccc(NC(=O)c3cccc(F)c3F)cc2)o1` [Compound 68, 2,3-Difluoro-N-{4-[2-trifluoromethyl-5-(5-tert-butyl-oxazol-2-yl)-benzoimidazol-1-yl]-phenyl}-benzamide] here?
Answer: Its IC50 is > 1000 nM.

Question: For `COC(=O)c1ccc2c(c1)nc(C(F)(F)F)n2-c1ccc(NC(=O)c2cccc(F)c2F)cc1` [Compound 96, 2-Trifluoromethyl-1-[4-(2,3-difluoro-benzoylamimo)-phenyl]-1H-benzoimidazole-5-carboxylic acid methyl ester], which IC50 (bins given in nM) is on record?
Answer: Its IC50 is < 100 nM.

Question: How did the IC50 (bins given with μM limit) turn out when `O=C(Nc1ccc(-n2c(C(F)(F)F)nc3ccccc32)cc1)c1cc[n+]([O-])cc1F` [Compound 51, 1-Oxo-3-fluoro-N-[4-(2-trifluoromethyl-benzoimidazol-1-yl)-phenyl]-isonicotinamide] was run?
Answer: The IC50 was > 1000 nM.

Question: Which IC50 (bins given in nM) does the source give for `COc1ccc2c(c1)nc(C(F)(F)F)n2-c1ccc(NC(=O)c2cccc(Br)c2)cc1` [Compound 118, 3-Bromo-N-[4-(2-trifluoromethyl-5-methoxy-benzoimidazol-1-yl)-phenyl]-benzamide] here?
Answer: The IC50 was < 100 nM.

Question: `COc1ccc2nc(C(F)(F)F)n(-c3ccc(NC(=O)c4cccc(F)c4F)cc3)c2c1` [Compound 14, 2,3-Difluoro-N-[4-(2-trifluoromethyl-6-methoxy-benzoimidazol-1-yl)-phenyl]-benzamide] was tested. Which IC50 (bins given in nM) did it give?
Answer: The IC50 was < 100 nM.

Question: For `COc1ccc2c(c1)nc(C(F)(F)F)n2-c1ccc(NC(=O)c2cc(F)cc(F)c2F)cc1` [Compound 2, 2,3,5-Trifluoro-N-[4-(2-trifluoromethyl-5-methoxy-benzoimidazol-1-yl)-phenyl]-benzamide], which IC50 (bins given in nM) is on record?
Answer: Its IC50 is < 100 nM.

Question: `COc1ccc2c(c1)nc(C(F)(F)F)n2-c1ccc(NC(=O)c2ccc(Br)cc2)cc1` [Compound 119, 4-Bromo-N-[4-(2-trifluoromethyl-5-methoxy-benzoimidazol-1-yl)-phenyl]-benzamide] was tested. Which IC50 (bins given in nM) did it give?
Answer: The IC50 was < 100 nM.

Question: How did the IC50 (bins given in nM) turn out when `O=C(Nc1ccc(-n2c(C(F)(F)F)nc3ccccc32)cc1)c1cccc(Cl)c1Cl` [Compound 13, 2,3-Dichloro-N-[4-(2-trifluoromethyl-benzoimidazol-1-yl)-phenyl]-benzamide] was run?
Answer: The IC50 was < 100 nM.

Question: `COc1ccc2c(c1)nc(C(F)(F)F)n2-c1ccc(NC(=O)c2c(Cl)cccc2Cl)cc1` [Compound 102, 2,6-Dichloro-N-[4-(2-trifluoromethyl-5-methoxy-benzoimidazol-1-yl)-phenyl]-benzamide] was tested. Which IC50 (bins given in nM) did it give?
Answer: The IC50 was < 100 nM.

Question: For `CC(=O)Nc1cc(NC(=O)c2cccc(F)c2F)ccc1-n1c(C(F)(F)F)nc2ccccc21` [Compound 53, 2,3-Difluoro-N-[3-acetylamino-4-(2-trifluoromethyl-benzoimidazol-1-yl)-phenyl]-benzamide], which IC50 (bins given with μM limit) is on record?
Answer: Its IC50 is > 1000 nM.

Question: How did the IC50 (bins given in nM) turn out when `COc1ccc2c(c1)nc(C(F)(F)F)n2-c1ccc(NC(=O)c2ccc(F)cc2F)cc1` [Compound 98, 2,4-Difluoro-N-[4-(2-trifluoromethyl-5-methoxy-benzoimidazol-1-yl)-phenyl]-benzamide] was run?
Answer: Its IC50 is < 100 nM.

Question: How did the IC50 (bins given in nM) turn out when `Cc1nnsc1C(=O)Nc1ccc(-c2c(Cl)cc3n2CCCC3)cc1` [Compound 24, 4-Methyl-[1,2,3]thiadiazole-5-carboxylic acid {N-[4-(2-chloro-5,6,7,8-tetrahydroindolizin-3-yl)-phenyl]} amide] was run?
Answer: Its IC50 is 100 to 500 nM.

Question: `O=C(Nc1ccc(-n2c(C(F)(F)F)nc3cnccc32)cc1)c1cccc(F)c1F` [Compound 61, 2,3-Difluoro-N-[4-(2-trifluoromethyl-imidazo[4,5-c]pyrid-1-yl)-phenyl]-benzamide] was tested. Which IC50 (bins given with μM limit) did it give?
Answer: Its IC50 is > 1000 nM.

Question: `COc1ccc2c(c1)nc(C(F)(F)F)n2-c1ccc(NC(=O)c2ccc(-c3ccccc3)cc2)cc1` [Compound 72, 4-Phenyl-N-[4-(2-trifluoromethyl-5-methoxy-benzoimidazol-1-yl)-phenyl]-benzamide] was tested. Which IC50 (bins given in nM) did it give?
Answer: Its IC50 is 100 to 500 nM.

Question: For `COc1ccc2c(c1)nc(C(F)(F)F)n2-c1ccc(NC(=O)c2c(F)c(F)c(F)c(F)c2F)cc1` [Compound 97, 2,3,4,5,6-Pentafluoro-N-[4-(2-trifluoromethyl-5-methoxy-benzoimidazol-1-yl)-phenyl]-benzamide], which IC50 (bins given in nM) is on record?
Answer: Its IC50 is < 100 nM.

Question: Which IC50 (bins given in nM) does the source give for `COc1ccc2c(c1)nc(C(F)(F)F)n2-c1ccc(NC(=O)c2ccc(F)c(F)c2)cc1` [Compound 110, 3,4-Difluoro-N-[4-(2-trifluoromethyl-5-methoxy-benzoimidazol-1-yl)-phenyl]-benzamide] here?
Answer: The IC50 was < 100 nM.

Question: With `COc1ccc2c(c1)nc(C(F)(F)F)n2-c1ccc(NC(=O)c2cccc(C#N)c2)cc1` [Compound 101, 3-Cyano-N-[4-(2-trifluoromethyl-5-methoxy-benzoimidazol-1-yl)-phenyl]-benzamide] as the compound, how does the IC50 (bins given in nM) read?
Answer: The IC50 was < 100 nM.

Question: `O=C(Nc1ccc(-n2c(C(F)(F)F)nc3ccccc32)c(C(F)(F)F)c1)c1cccc(F)c1F` [Compound 30, 2,3-Difluoro-N-[3-trifluoromethyl-4-(2-trifluoromethyl-benzoimidazol-1-yl)-phenyl]-benzamide] was tested. Which IC50 (bins given in nM) did it give?
Answer: The IC50 was 100 to 500 nM.

Question: With `COc1ccc2c(c1)nc(C(F)(F)F)n2-c1ccc(NC(=O)Cc2ccc(OC)c(OC)c2)cc1` [Compound 131, 2-(3,4-dimethoxy-phenyl)-N-[4-(2-trifluoromethyl-5-methoxy-benzoimidazol-1-yl)-phenyl]-acetamide] as the compound, how does the IC50 (bins given with μM limit) read?
Answer: The IC50 was > 1000 nM.

Question: With `COc1ccc2c(c1)nc(C(F)(F)F)n2-c1ccc(NC(=O)c2ccccc2Cl)cc1` [Compound 126, 2-Chloro-N-[4-(2-trifluoromethyl-5-methoxy-benzoimidazol-1-yl)-phenyl]-benzamide] as the compound, how does the IC50 (bins given with μM limit) read?
Answer: Its IC50 is > 1000 nM.

Question: How did the IC50 (bins given in nM) turn out when `CC(C)(C)c1ccc2c(c1)nc(C(F)(F)F)n2-c1ccc(NC(=O)c2cccc(F)c2F)cc1` [Compound 35, 2,3-Difluoro-N-[4-(2-trifluoromethyl-5-tert-butyl-benzoimidazol-1-yl)-phenyl]-benzamide] was run?
Answer: Its IC50 is 100 to 500 nM.

Question: With `COc1ccc2c(c1)nc(C(F)(F)F)n2-c1ccc(NC(=O)C2CC2c2ccccc2)cc1` (stereo not shown) [Compound 90, 2-Phenyl-N-[4-(2-trifluoromethyl-5-methoxy-benzoimidazol-1-yl)-phenyl]-cyclopropanecarboxylic acid amide] as the compound, how does the IC50 (bins given in nM) read?
Answer: The IC50 was 100 to 500 nM.

Question: How did the IC50 (bins given in nM) turn out when `O=C(Nc1ccc(-n2c(C(F)(F)F)nc3ccccc32)c(Cl)c1)c1cc(F)ccc1F` [Compound 38, 2,5-Difluoro-N-[3-chloro-4-(2-trifluoromethyl-benzoimidazol-1-yl)-phenyl]-benzamide] was run?
Answer: The IC50 was 100 to 500 nM.

Question: `CCCCC(CC)C(=O)Nc1ccc(-n2c(C(F)(F)F)nc3cc(OC)ccc32)cc1` (stereo not shown) [Compound 87, 2-Ethyl-N-[4-(2-trifluoromethyl-5-methoxy-benzoimidazol-1-yl)-phenyl]-hexanoic acid amide] was tested. Which IC50 (bins given in nM) did it give?
Answer: The IC50 was 100 to 500 nM.

Question: `COc1ccc2c(c1)nc(C(F)(F)F)n2-c1ccc(NC(=O)c2ccccc2I)cc1` [Compound 115, 2-Iodo-N-[4-(2-trifluoromethyl-5-methoxy-benzoimidazol-1-yl)-phenyl]-benzamide] was tested. Which IC50 (bins given in nM) did it give?
Answer: Its IC50 is < 100 nM.

Question: For `COc1ccc2c(c1)nc(C(F)(F)F)n2-c1ccc(NC(=O)c2cc(Cl)cc(Cl)c2)cc1` [Compound 117, 3,5-Dichloro-N-[4-(2-trifluoromethyl-5-methoxy-benzoimidazol-1-yl)-phenyl]-benzamide], which IC50 (bins given in nM) is on record?
Answer: The IC50 was < 100 nM.

Question: Which IC50 (bins given in nM) does the source give for `COc1ccc2c(c1)nc(C(F)(F)F)n2-c1ccc(NC(=O)c2ccc(C#N)cc2)cc1` [Compound 77, 4-Cyano-N-[4-(2-trifluoromethyl-5-methoxy-benzoimidazol-1-yl)-phenyl]-benzamide] here?
Answer: The IC50 was 100 to 500 nM.

Question: Which IC50 (bins given in nM) does the source give for `O=C(Nc1ccc(-n2c(C(F)(F)F)nc3ccccc32)cc1)c1cccc(Cl)c1F` [Compound 15] here?
Answer: The IC50 was 100 to 500 nM.

Question: Which IC50 (bins given in nM) does the source give for `O=C(Nc1ccc(-n2c(C(F)(F)F)nc3ccccc32)cc1)c1ccncc1F` [Compound 27, 3-Fluoro-N-[4-(2-trifluoromethyl-benzoimidazol-1-yl)-phenyl]-isonicotinamide] here?
Answer: Its IC50 is 100 to 500 nM.

Question: `COc1ccc2c(c1)nc(C(F)(F)F)n2-c1ccc(NC(=O)CSc2ccccc2)cc1` [Compound 124, 2-Phenylsulfanyl-N-[4-(2-trifluoromethyl-5-methoxy-benzoimidazol-1-yl)-phenyl]-acetamide] was tested. Which IC50 (bins given with μM limit) did it give?
Answer: Its IC50 is > 1000 nM.

Question: Which IC50 (bins given in nM) does the source give for `COc1ccc2c(c1)nc(C(F)(F)F)n2-c1ccc(NC(=O)c2cccs2)cc1` [Compound 86, Thiophene-2-carboxylic acid {N-[4-(2-trifluoromethyl-5-methoxy-benzoimidazol-1-yl)-phenyl]} amide] here?
Answer: Its IC50 is 100 to 500 nM.

Question: For `Cc1nnsc1C(=O)Nc1ccc(-n2c(C(F)(F)F)nc3ccccc32)nc1` [Compound 62, 4-Methyl-[1,2,3]thiadiazole-5-carboxylic acid {N-[2-(2-trifluoromethyl-benzoimidazol-1-yl)-pyrid-5-yl]} amide], which IC50 (bins given with μM limit) is on record?
Answer: The IC50 was > 1000 nM.

Question: With `O=C(Nc1ccc(-c2c(C(F)(F)F)nc3ccccn23)cc1)c1cccc(F)c1F` [Compound 70, 2,3-Difluoro-N-[4-(2-trifluoromethyl-imidazo[1,2-a]pyrid-3-yl)-phenyl]-benzamide] as the compound, how does the IC50 (bins given in nM) read?
Answer: Its IC50 is 100 to 500 nM.
